From paper PMC5562236, “Properties of Two Novel Esterases Identified from Culture Supernatant of Penicillium purpurogenum Grown on Sugar Beet Pulp” (Insights in enzyme research, 2016)

System: T1, FAET
T1 construct: full-length cDNA (introns removed) with own signal peptide in pPICZB, stop codon kept, no tag seen; secreted by Pichia pastoris GS115, culture supernatant, no purification described
Experiment: pNP release at […] nm, microplate, recombinant P. pastoris culture supernatant
Type: biochemical, Talaromyces purpureogenus
Details: 100 mM sodium phosphate pH 5.8, 28 °C (general pNP assay)

SMILES: CC(=O)Oc1ccc([N+](=O)[O-])cc1 [pNP-acetate]
- Km: 2300 µM

SMILES: COc1cc(/C=C/C(=O)Oc2ccc([N+](=O)[O-])cc2)ccc1O [pNP-ferulate]
- Km: 1400 µM
